Earlier results in patent US20070298107A1, “Pharmaceutical Compositions of Mirtazapine” (AUROBINDO PHARMA LTD., priority 2003, published 2007).

Conditions: background statement

SMILES: CN1CCN2c3ncccc3Cc3ccccc3C2C1 (stereo not shown) [Mirtazapine]
- solubility in water: essentially insoluble
